Earlier results in patent US6586413B2, “Methods and compositions for reducing ischemic injury of the heart by administering adenosine receptor agonists and antagonists” (The United States of America as represented by the …, priority 1999, dated 2003).

Test system: Rat Brain A1 and A2-Receptors
Settings: cited from earlier work; for A1/A2 ratio: rat brain, reference 31; for A1/A2 ratio, value in square brackets: second value printed in brackets below, brackets not explained

**Q.** With C=CCn1c(=O)c2c(nc(C=Cc3cc(OC)c(OC)c(OC)c3)n2C)n(CC=C)c1=O [compound 46] as the compound, how does the A1/A2 ratio read?
**A.** Its A1/A2 ratio is 13.

**Q.** And the “A1/A2 ratio, value in square brackets” value?
**A.** The value was “[>6700]”.

**Q.** With COc1ccccc1C=Cc1nc2c(c(=O)n(C)c(=O)n2C)n1C [17b] as the compound, how does the A1/A2 ratio read?
**A.** The A1/A2 ratio was 18.

**Q.** Which A1/A2 ratio does the source give for CCCn1c(=O)c2c(nc(C=Cc3cc(OC)cc(OC)c3)n2C)n(CCC)c1=O [53b] here?
**A.** The A1/A2 ratio was 110.

**Q.** With Cn1c(=O)c2c(nc(C=Cc3cc(F)cc(F)c3)n2C)n(C)c1=O [34b] as the compound, how does the A1/A2 ratio read?
**A.** The A1/A2 ratio was 230.

**Q.** Which A1/A2 ratio does the source give for COc1ccc(C=Cc2nc3c(c(=O)n(C)c(=O)n3C)n2C)cc1 [29b] here?
**A.** Its A1/A2 ratio is 44.

**Q.** Which A1/A2 ratio does the source give for COc1cc(C=Cc2nc3c(c(=O)n(C)c(=O)n3C)n2C)cc(OC)c1OCCCCN [compound 38] here?
**A.** Its A1/A2 ratio is 36.

**Q.** For COc1cc(C=Cc2nc3c(c(=O)n(C)c(=O)n3C)n2C)cc(OC)c1O [compound 35], which A1/A2 ratio is on record?
**A.** Its A1/A2 ratio is 19.

**Q.** For COc1cccc(C=Cc2nc3c(c(=O)n(C)c(=O)n3C)n2C)c1 [19b], which A1/A2 ratio is on record?
**A.** Its A1/A2 ratio is 64.

**Q.** For Cn1c(=O)c2c(nc(C=Cc3cccc(NC(=O)OC(C)(C)C)c3)n2C)n(C)c1=O [compound 25], which A1/A2 ratio is on record?
**A.** The A1/A2 ratio was 30.

**Q.** With COc1cc(C=Cc2nc3c(c(=O)n(C)c(=O)n3C)n2C)cc(OC)c1OCC=CCNC(C)=O [compound 41] as the compound, how does the A1/A2 ratio read?
**A.** The A1/A2 ratio was over 50.

**Q.** For CC(=O)Nc1cccc(C=Cc2nc3c(c(=O)n(C)c(=O)n3C)n2C)c1 [compound 23], which A1/A2 ratio is on record?
**A.** The A1/A2 ratio was 240.

**Q.** With COc1cc(C=Cc2nc3c(c(=O)n(C)c(=O)n3C)n2C)cc(OC)c1OCC=CCN [compound 40] as the compound, how does the A1/A2 ratio read?
**A.** The A1/A2 ratio was 28.

**Q.** Which A1/A2 ratio does the source give for Cn1c(=O)c2c(nc(C=Cc3cccc(NC(=O)CCC(=O)O)c3)n2C)n(C)c1=O [compound 24] here?
**A.** The A1/A2 ratio was 250.

**Q.** Which A1/A2 ratio does the source give for COc1ccc(C=Cc2nc3c(c(=O)n(C)c(=O)n3C)n2C)c(OC)c1OC [43b] here?
**A.** The A1/A2 ratio was 34.

**Q.** For Cn1c(=O)c2c(nc(C=Cc3cccc(F)c3)n2C)n(C)c1=O [27b], which A1/A2 ratio is on record?
**A.** Its A1/A2 ratio is 190.

**Q.** For Cn1c(=O)c2c(nc(C=Cc3cccc(N(C(=O)OC(C)(C)C)C(=O)OC(C)(C)C)c3)n2C)n(C)c1=O [compound 26], which A1/A2 ratio is on record?
**A.** Its A1/A2 ratio is 15.

**Q.** Which A1/A2 ratio does the source give for COc1cc(C=Cc2nc3c(c(=O)n(C)c(=O)n3C)n2C)cc(OC)c1OC(C)=O [compound 36] here?
**A.** Its A1/A2 ratio is 93.

**Q.** With COc1ccc(C=Cc2nc3c(c(=O)n(C)c(=O)n3C)n2C)cc1OC [32b] as the compound, how does the A1/A2 ratio read?
**A.** The A1/A2 ratio was 70.

**Q.** Which A1/A2 ratio does the source give for Cn1c(=O)c2c(nc(/C=C/c3cccc(C(F)(F)F)c3)n2C)n(C)c1=O [20b] here?
**A.** The A1/A2 ratio was 25.

**Q.** With COc1cc(C=Cc2nc3c(c(=O)n(C)c(=O)n3C)n2C)cc(OC)c1OCCCCNC(=O)OC(C)(C)C [compound 39] as the compound, how does the A1/A2 ratio read?
**A.** Its A1/A2 ratio is 42.

**Q.** With Cn1c(=O)c2c(nc(C=Cc3cccc(N)c3)n2C)n(C)c1=O [22b] as the compound, how does the A1/A2 ratio read?
**A.** The A1/A2 ratio was 30.

**Q.** With COc1cc(C=Cc2nc3c(c(=O)n(C)c(=O)n3C)n2C)cc(OC)c1OC [44b] as the compound, how does the A1/A2 ratio read?
**A.** Its A1/A2 ratio is 70.

**Q.** And the “A1/A2 ratio, value in square brackets” value?
**A.** The value was “[>5600]”.

**Q.** For Cn1c(=O)c2c(nc(C=Cc3cccc([N+](=O)[O-])c3)n2C)n(C)c1=O [21b], which A1/A2 ratio is on record?
**A.** The A1/A2 ratio was 11.

**Q.** With COc1cc(C=Cc2nc3c(c(=O)n(C)c(=O)n3C)n2C)cc(OC)c1 [33b] as the compound, how does the A1/A2 ratio read?
**A.** The A1/A2 ratio was over 200.

**Q.** Which A1/A2 ratio does the source give for COc1cc(C=Cc2nc3c([nH]2)c(=O)n(C)c(=O)n3C)cc(OC)c1 [33a] here?
**A.** Its A1/A2 ratio is 25.

**Q.** Which A1/A2 ratio does the source give for COc1cc(C=Cc2nc3c(c(=O)n(C)c(=O)n3C)n2C)cc(OC)c1OCC=CCNC(=O)OC(C)(C)C [compound 42] here?
**A.** Its A1/A2 ratio is over 40.
